This passage reports ΔTm results from ChEMBL document CHEMBL5154816, “Structure-Based Discovery and Optimization of Furo[3,2-c]pyridin-4(5H)-one Derivatives as Potent and Second Bromodomain (BD2)-Selective Bromo and Extra Terminal Domain (BET) Inhibitors” (J Med Chem, 2022).

The target of experiment [1] is Bromodomain-containing protein 3 (Homo sapiens, UniProt Q15059). As to the kind of experiment: Binding affinity to His6-fused BRD3 BD2 (unknown origin) assessed as change in melting temperature at 100 uM incubated for 30 mins by thermal shift assay.
For experiment [2], the target named is Chromatin remodeling regulator CECR2 (Homo sapiens) (UniProt Q9BXF3). The experiment can be described thus: Binding affinity to CECR2 (unknown origin) assessed as change in melting temperature at 100 uM incubated for 30 mins by thermal shift assay.
The target in experiment [3] is T1, Bromodomain-containing protein 9 (Homo sapiens) (UniProt Q9H8M2).
T1 sequence (whole entry): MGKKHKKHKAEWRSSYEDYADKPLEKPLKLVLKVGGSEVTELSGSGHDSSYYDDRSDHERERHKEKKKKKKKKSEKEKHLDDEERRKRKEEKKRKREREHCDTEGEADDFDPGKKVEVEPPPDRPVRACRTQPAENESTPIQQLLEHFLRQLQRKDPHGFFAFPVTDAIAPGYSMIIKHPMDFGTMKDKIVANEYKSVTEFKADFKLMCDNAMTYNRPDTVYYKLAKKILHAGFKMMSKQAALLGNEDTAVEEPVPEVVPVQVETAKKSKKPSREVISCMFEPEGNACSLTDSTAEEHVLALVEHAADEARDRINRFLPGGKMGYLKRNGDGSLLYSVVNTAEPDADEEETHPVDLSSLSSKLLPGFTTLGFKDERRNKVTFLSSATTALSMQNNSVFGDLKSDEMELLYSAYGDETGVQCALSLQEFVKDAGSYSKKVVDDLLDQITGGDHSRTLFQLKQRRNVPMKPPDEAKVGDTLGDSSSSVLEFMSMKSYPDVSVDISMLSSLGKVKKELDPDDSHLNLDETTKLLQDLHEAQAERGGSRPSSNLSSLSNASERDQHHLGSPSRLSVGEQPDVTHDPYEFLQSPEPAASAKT
The experiment can be described thus: Binding affinity to His6-fused BRD9 (unknown origin) assessed as change in melting temperature at 100 uM incubated for 30 mins by thermal shift assay.

Experiment [4] addresses T2, Transcription intermediary factor 1-alpha (Homo sapiens) (UniProt O15164).
T2 sequence (whole entry): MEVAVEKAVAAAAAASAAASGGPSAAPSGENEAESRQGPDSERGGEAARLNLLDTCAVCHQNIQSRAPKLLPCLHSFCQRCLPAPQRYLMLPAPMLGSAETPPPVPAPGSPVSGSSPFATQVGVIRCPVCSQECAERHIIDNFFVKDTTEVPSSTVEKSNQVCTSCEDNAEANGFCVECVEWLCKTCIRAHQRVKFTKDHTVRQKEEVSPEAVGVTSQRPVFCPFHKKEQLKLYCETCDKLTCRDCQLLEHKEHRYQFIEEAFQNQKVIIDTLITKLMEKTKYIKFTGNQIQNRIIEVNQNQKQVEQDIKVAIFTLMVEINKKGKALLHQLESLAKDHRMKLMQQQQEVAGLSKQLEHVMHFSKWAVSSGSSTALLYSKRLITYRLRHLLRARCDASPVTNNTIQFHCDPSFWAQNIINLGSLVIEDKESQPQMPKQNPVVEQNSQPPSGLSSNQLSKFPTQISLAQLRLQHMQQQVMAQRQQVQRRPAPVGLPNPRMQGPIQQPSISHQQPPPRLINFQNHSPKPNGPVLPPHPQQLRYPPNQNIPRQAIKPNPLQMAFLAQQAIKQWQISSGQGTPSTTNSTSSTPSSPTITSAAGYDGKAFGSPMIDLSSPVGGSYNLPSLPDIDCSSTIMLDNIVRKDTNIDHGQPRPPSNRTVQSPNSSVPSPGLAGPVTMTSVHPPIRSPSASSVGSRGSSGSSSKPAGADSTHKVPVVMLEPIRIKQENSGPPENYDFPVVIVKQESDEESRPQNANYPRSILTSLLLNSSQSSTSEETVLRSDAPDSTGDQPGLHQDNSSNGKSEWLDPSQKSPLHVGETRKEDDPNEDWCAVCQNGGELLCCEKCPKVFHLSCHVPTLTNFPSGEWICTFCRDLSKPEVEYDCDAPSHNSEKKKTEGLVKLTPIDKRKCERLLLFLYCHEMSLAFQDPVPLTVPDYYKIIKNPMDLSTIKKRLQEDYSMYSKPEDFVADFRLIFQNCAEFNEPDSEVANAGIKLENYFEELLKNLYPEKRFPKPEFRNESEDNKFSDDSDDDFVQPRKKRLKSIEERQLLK
As to the kind of experiment: Binding affinity to TRIM24 (unknown origin) assessed as change in melting temperature at 100 uM incubated for 30 mins by thermal shift assay.

Experiment [5] deals with CREB-binding protein (Homo sapiens) (UniProt Q92793). As to the kind of experiment: Binding affinity to CBP (unknown origin) assessed as change in melting temperature at 100 uM incubated for 30 mins by thermal shift assay.
Sequence of CREB-binding protein (Homo sapiens) (Q92793 2-2442 limits assumed): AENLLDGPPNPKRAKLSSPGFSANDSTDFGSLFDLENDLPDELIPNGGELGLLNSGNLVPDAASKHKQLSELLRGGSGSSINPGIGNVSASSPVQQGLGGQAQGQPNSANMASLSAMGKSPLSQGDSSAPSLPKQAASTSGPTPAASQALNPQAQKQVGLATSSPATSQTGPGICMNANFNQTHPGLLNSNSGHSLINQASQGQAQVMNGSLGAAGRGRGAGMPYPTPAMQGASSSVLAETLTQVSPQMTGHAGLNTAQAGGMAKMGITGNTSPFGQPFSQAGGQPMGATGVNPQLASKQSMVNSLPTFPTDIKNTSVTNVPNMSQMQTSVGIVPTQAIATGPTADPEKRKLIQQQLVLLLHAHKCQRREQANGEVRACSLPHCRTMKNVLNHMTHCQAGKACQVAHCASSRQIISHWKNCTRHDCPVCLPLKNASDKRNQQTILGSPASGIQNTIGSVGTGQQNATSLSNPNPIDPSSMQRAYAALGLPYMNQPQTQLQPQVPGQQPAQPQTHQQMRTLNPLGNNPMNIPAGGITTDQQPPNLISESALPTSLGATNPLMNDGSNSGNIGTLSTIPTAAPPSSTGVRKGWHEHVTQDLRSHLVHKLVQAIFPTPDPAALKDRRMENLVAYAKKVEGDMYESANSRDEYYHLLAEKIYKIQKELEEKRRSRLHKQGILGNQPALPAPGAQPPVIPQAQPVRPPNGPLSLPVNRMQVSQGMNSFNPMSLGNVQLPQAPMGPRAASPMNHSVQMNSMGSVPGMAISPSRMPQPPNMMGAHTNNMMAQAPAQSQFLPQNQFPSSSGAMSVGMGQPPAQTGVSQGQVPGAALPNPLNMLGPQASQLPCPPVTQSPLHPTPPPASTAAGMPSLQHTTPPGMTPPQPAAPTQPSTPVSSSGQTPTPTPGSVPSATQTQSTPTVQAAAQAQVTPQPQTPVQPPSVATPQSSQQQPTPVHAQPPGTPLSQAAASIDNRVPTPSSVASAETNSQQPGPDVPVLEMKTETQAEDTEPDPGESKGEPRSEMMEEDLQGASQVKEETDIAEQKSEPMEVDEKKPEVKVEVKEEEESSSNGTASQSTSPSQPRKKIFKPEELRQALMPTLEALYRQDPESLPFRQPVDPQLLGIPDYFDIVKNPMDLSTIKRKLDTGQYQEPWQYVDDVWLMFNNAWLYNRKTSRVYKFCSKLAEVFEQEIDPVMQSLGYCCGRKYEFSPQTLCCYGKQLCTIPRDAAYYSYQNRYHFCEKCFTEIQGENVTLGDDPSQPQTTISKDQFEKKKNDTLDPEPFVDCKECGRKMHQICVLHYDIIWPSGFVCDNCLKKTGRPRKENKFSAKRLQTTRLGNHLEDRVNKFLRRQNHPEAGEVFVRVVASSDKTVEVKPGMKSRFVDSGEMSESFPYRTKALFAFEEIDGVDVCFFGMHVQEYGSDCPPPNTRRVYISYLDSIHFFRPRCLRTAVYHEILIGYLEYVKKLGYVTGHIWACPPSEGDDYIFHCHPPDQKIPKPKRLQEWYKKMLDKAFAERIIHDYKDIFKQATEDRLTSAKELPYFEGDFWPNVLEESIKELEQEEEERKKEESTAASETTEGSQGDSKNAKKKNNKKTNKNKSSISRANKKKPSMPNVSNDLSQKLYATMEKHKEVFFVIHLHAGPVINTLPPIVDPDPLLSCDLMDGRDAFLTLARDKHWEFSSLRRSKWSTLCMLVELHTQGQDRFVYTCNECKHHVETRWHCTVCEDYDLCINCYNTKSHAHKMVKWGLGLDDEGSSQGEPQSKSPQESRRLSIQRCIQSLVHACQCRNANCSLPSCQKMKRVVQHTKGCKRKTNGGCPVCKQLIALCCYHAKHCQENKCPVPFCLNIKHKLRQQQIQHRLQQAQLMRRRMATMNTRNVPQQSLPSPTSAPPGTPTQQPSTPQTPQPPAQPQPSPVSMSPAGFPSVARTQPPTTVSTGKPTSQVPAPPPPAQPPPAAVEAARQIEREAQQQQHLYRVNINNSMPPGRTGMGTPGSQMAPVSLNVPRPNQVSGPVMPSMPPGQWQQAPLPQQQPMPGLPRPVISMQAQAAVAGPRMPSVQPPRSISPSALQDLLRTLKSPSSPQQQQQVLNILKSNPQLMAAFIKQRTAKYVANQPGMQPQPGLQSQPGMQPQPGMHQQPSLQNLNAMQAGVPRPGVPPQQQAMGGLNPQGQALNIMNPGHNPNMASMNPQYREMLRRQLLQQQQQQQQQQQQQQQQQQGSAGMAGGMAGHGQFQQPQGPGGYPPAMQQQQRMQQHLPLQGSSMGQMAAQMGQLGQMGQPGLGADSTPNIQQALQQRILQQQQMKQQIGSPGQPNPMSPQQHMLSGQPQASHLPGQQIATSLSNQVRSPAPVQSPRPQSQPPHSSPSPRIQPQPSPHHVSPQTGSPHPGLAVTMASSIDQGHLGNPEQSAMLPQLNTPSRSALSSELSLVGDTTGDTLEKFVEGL

Sequence of Chromatin remodeling regulator CECR2 (Homo sapiens) (Q9BXF3 whole entry, looked up): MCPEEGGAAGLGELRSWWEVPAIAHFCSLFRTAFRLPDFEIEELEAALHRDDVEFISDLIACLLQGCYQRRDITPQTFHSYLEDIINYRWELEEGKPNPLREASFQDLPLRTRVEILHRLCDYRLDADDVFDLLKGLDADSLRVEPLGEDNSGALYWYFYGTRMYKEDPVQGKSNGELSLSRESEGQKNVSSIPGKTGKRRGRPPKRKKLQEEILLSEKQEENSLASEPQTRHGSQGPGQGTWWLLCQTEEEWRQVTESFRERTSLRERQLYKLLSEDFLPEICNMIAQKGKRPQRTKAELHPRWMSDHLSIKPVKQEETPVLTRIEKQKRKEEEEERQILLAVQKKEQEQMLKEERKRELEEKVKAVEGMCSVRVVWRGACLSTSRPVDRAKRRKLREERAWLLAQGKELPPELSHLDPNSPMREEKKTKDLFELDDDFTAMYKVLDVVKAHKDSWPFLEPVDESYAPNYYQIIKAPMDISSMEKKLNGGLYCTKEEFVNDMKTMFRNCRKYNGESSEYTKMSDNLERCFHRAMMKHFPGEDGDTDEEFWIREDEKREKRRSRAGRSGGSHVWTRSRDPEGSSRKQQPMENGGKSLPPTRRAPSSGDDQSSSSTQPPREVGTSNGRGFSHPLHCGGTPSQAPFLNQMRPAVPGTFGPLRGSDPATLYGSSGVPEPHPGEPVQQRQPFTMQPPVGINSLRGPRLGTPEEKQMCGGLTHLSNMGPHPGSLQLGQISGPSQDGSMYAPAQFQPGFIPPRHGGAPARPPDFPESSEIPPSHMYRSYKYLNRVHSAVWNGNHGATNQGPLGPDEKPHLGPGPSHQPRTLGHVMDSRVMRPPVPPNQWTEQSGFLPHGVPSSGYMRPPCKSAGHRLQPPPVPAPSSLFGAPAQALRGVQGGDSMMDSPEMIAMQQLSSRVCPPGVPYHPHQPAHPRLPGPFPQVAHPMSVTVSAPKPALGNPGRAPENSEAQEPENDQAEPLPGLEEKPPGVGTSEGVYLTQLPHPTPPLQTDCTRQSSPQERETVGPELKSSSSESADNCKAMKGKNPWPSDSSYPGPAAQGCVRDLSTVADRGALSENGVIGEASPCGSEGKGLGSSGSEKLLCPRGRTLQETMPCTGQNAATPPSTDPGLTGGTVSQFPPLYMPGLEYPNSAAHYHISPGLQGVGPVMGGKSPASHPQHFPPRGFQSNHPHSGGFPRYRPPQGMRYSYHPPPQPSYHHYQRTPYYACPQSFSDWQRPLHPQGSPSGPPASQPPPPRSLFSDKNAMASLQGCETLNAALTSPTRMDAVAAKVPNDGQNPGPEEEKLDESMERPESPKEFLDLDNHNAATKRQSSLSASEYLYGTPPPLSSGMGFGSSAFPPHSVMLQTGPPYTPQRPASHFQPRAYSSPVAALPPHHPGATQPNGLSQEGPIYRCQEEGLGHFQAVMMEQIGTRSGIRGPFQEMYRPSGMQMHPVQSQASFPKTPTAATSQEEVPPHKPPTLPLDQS
Sequence of Bromodomain-containing protein 3 (Q15059 2-726 limits assumed): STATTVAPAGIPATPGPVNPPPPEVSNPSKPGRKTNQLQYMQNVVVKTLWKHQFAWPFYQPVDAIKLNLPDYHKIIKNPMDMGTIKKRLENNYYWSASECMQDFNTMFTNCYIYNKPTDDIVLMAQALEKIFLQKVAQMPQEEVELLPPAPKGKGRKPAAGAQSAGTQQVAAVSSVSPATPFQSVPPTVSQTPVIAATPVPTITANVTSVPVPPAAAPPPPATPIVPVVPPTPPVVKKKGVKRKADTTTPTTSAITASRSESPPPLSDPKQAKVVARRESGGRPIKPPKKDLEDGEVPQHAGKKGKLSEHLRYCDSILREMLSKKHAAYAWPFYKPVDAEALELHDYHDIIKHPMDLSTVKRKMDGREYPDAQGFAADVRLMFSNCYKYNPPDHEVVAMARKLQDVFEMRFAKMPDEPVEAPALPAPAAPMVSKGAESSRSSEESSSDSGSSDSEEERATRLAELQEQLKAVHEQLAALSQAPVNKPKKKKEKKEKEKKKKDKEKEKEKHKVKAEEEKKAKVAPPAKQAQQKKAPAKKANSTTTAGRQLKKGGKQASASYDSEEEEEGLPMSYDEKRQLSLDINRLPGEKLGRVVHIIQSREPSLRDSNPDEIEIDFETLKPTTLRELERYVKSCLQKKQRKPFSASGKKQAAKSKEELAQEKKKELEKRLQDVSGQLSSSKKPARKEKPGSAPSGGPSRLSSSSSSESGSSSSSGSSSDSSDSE

For `Cc1cc(F)cc(C)c1Oc1ccc(C(C)(C)O)cc1-c1cn(C)c(=O)c2cc(-c3cnc(C4CCCCC4)[nH]3)oc12`, the ΔTm was 9 °C in experiment [1]; -0.25 °C in experiment [2]; -1.25 °C in experiment [3]; -1 °C in experiment [4]; 0.5 °C in experiment [5].
Taken in the same sequence, the figures for `Cc1cc(F)cc(C)c1Oc1ccc(C(C)(C)O)cc1-c1cn(C)c(=O)c2cc(-c3cnc(C4CCCC4)[nH]3)oc12` were 11.5 °C, 0 °C, -0.75 °C, -1 °C and 0.75 °C.
`Cc1cc(F)cc(C)c1Oc1ccc(C(C)(C)O)cc1-c1cn(C)c(=O)c2cc(-c3cnc(C4CCC4)[nH]3)oc12`: the ΔTm is 12 °C in experiment [1]; -0.25 °C in experiment [2]; -0.5 °C in experiment [3]; -1.25 °C in experiment [4]; 0.5 °C in experiment [5].
On the same counts, the results for `Cc1cc(F)cc(C)c1Oc1ccc(C(C)(C)O)cc1-c1cn(C)c(=O)c2cc(-c3cnc(C4CC4)[nH]3)oc12` are 13 °C, 0 °C, -2 °C, -1.5 °C and 1 °C.
